According to patent US20060148725A1, “Selective 11beta HSD inhibitors and methods of use thereof” (The Miriam Hospital, priority 2001, published 2006):

Legend:
11β-HSD1 Reductase = 11β-HSD1 Reductase (Rattus norvegicus, UniProt P16232); test: Inhibition of 11β-HSD1 reductase activity (Table 1); settings: inhibition class in words
11β-HSD2 Dehydrogenase = target: T1, 11β-HSD2 Dehydrogenase (Ovis aries, UniProt P50168); test: Inhibition of 11β-HSD2 dehydrogenase activity (Table 1); assay type: biochemical, sheep; settings: inhibition class in words
T1 construct: using 50 nM corticosterone substrate concentration and sheep kidney microsomes; from tissue; host or cells: sheep kidney microsomes
T1 sequence (P50168 1-427): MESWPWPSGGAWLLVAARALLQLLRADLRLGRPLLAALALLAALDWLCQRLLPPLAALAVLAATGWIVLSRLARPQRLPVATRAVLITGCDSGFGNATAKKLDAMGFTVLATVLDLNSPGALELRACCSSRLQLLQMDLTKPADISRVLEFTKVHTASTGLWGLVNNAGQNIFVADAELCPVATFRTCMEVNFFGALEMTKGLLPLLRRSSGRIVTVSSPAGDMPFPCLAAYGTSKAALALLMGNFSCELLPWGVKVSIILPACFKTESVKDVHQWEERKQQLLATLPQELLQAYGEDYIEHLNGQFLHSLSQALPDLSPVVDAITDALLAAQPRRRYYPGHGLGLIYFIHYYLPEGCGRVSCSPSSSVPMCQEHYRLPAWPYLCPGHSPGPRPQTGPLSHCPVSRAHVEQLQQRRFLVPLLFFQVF

11β-HSD1 Dehydrogenase = 11β-HSD1 Dehydrogenase (Rattus norvegicus, UniProt P16232); test: Inhibition of 11β-HSD1 dehydrogenase activity (Table 1); assay type: biochemical; settings: inhibition class in words
rat aortic rings = settings: aortic rings incubated with corticosterone; previously demonstrated; cited from earlier work

Sequence of 11β-HSD1 Reductase (P16232 whole entry): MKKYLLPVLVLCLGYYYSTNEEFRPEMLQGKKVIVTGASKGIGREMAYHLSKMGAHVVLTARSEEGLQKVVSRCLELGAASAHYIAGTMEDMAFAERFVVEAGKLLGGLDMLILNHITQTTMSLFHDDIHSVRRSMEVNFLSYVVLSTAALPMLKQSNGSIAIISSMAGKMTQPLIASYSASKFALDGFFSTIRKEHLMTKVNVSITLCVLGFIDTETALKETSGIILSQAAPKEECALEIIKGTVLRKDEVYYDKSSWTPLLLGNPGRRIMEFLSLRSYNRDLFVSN
Sequence of 11β-HSD1 Dehydrogenase (P16232 whole entry): as above

Compound | 11β-HSD1 Reductase (11β-HSD1 Reductase) | 11β-HSD2 Dehydrogenase (11β-HSD2 Dehydrogenase) | 11β-HSD1 Dehydrogenase (11β-HSD1 Dehydrogenase) | effect of the steroid on contractile responses to graded phenylephrine compared to controls (rat aortic rings)
C[C@]12CCC(=O)C=C1CC[C@@H]1[C@H]2C(=O)C[C@]2(C)C(=O)CC[C@H]12 (stereo in doubt) [11-Keto-androstenedione] | Selective Inhibitor | No Inhibition | No Inhibition | –
C[C@]12CC[C@H](O)C[C@@H]1CC[C@@H]1[C@@H]2[C@@H](O)C[C@]2(C=O)[C@@H](C(=O)CO)CC[C@@H]12 [3α,5α-reduced aldosterone] | No Inhibition | Potent Inhibitor | Moderate Inhibitor | –
C[C@]12CC[C@H](O)C[C@@H]1CC[C@@H]1[C@@H]2C(=O)C[C@]2(C)C(=O)CC[C@@H]12 [3α,5α-reduced-11-keto-androstenedione] | Selective Inhibitor | – | No Inhibition | –
C[C@]12CC[C@H](O)C[C@@H]1CC[C@H]1[C@@H]3CC[C@H](O)[C@@]3(C)CC(=O)[C@@H]12 [3α,5α-reduced-11-keto-testosterone] | Selective Inhibitor | – | No Inhibition | –
C[C@]12CC[C@H](O)C[C@H]1CC[C@@H]1[C@H]2[C@@H](O)C[C@]2(C)C(=O)CC[C@H]12 [3α,5α-reduced-11β-OH-androstenedione] | No Inhibition | Potent Inhibitor (Non-Selective) | Moderate Inhibitor | –
CC(=O)[C@H]1CC[C@H]2[C@@H]3CC[C@H]4C[C@@H](O)CC[C@]4(C)[C@H]3[C@@H](O)C[C@]12C [3α,5α-reduced-11β-OH-progesterone] | No Inhibition | Potent Inhibitor (Non-Selective) | Potent Inhibitor (Non-Selective) | –
C[C@]12CC[C@H](O)C[C@@H]1CC[C@@H]1[C@@H]2[C@@H](O)C[C@]2(C)[C@@H](O)CC[C@@H]12 [3α,5α-reduced-11β-OH-testosterone] | No Inhibition | Potent Inhibitor (Non-Selective) | Potent Inhibitor (Non-Selective) | –
C[C@]12CC[C@H](O)C[C@@H]1CC[C@@H]1[C@@H]2[C@@H](O)C[C@]2(C)[C@@H](C(=O)CO)CC[C@@H]12 [3α,5α-reduced-corticosterone] | No Inhibition | Potent Inhibitor | Potent Inhibitor | –
C[C@]12CC[C@H](O)C[C@@H]1CC[C@H]1[C@@H]3CC[C@H](C(=O)CO)[C@@]3(C)CC(=O)[C@@H]12 [3α,5α-tetrahydro-11-dehydro-corticosterone] | Potent Inhibitor | Potent Inhibitor | No Inhibition | –
CC(=O)[C@H]1CC[C@@H]2[C@@H]3CC[C@@H]4C[C@@H](O)CC[C@]4(C)[C@@H]3[C@@H](O)C[C@]12C [3α,5β-reduced-11β-OH-progesterone] | No Inhibition | No Inhibition | Moderate Inhibitor | –
C[C@]12CC[C@H](O)C[C@H]1CC[C@@H]1[C@H]2[C@@H](O)C[C@@]2(C)[C@@H]1CC[C@@H]2O [3α,5β-reduced-11β-OH-testosterone] | No Inhibition | No Inhibition | Moderate Inhibitor | –
C[C@]12CCC(=O)C[C@@H]1CC[C@@H]1[C@@H]2[C@@H](O)C[C@]2(C)[C@@H](C(=O)CO)CC[C@@H]12 [5α-dihydro-corticosterone] | No inhibition | Potent Inhibitor | Potent Inhibitor | –
CC(=O)[C@H]1CC[C@@H]2[C@@H]3CCC4=CC(=O)CC[C@]4(C)[C@@H]3C(=O)C[C@]12C [11-Keto-progesterone] | Selective Inhibitor | Potent Inhibitor | No Inhibition | –
C[C@]12CC(=O)[C@H]3[C@@H](CCC4=CC(=O)CC[C@@]43C)[C@@H]1CC[C@@H]2O [11-Keto-testosterone] | Selective Inhibitor | No Inhibition | No Inhibition | –
CC(=O)[C@H]1CC[C@@H]2[C@@H]3CCC4=CC(=O)CC[C@]4(C)[C@@H]3[C@@H](O)C[C@]12C [11β-OH-progesterone] | No Inhibition | – | Potent Inhibitor (Non-Selective) | –
C[C@]12C[C@H](O)[C@@H]3[C@@H](CCC4=CC(=O)CC[C@@]43C)[C@H]1CC[C@@H]2O [11β-OH-testosterone] | No Inhibition | Inhibitor (Non-Selective) | Inhibitor (Non-Selective) | –
C[C@]12C[C@H](O)[C@H]3[C@@H](CCC4=CC(=O)CC[C@@]43C)[C@@H]1CC[C@@H]2C(=O)CO [corticosterone] | – | – | – | amplified contractile responses
chenodeoxycholic acid | No Inhibition | No Inhibition | Selective inhibitor | –
